In ChEMBL document CHEMBL5244202, “Structural evolution of toll-like receptor 7/8 agonists from imidazoquinolines to imidazoles” (RSC Med Chem, 2021):

What was measured:
Toll-like receptor 7 [1] = biological target: T1, Toll-like receptor 7 (Homo sapiens, UniProt Q9NYK1); assay: Agonist activity at human TLR7 in HEK-Blue hTLR7 cells assessed as activation of NFkappaB by SEAP reporter gene based spectrophotometry assay; format: cell-based
T1 sequence (Q9NYK1 whole entry): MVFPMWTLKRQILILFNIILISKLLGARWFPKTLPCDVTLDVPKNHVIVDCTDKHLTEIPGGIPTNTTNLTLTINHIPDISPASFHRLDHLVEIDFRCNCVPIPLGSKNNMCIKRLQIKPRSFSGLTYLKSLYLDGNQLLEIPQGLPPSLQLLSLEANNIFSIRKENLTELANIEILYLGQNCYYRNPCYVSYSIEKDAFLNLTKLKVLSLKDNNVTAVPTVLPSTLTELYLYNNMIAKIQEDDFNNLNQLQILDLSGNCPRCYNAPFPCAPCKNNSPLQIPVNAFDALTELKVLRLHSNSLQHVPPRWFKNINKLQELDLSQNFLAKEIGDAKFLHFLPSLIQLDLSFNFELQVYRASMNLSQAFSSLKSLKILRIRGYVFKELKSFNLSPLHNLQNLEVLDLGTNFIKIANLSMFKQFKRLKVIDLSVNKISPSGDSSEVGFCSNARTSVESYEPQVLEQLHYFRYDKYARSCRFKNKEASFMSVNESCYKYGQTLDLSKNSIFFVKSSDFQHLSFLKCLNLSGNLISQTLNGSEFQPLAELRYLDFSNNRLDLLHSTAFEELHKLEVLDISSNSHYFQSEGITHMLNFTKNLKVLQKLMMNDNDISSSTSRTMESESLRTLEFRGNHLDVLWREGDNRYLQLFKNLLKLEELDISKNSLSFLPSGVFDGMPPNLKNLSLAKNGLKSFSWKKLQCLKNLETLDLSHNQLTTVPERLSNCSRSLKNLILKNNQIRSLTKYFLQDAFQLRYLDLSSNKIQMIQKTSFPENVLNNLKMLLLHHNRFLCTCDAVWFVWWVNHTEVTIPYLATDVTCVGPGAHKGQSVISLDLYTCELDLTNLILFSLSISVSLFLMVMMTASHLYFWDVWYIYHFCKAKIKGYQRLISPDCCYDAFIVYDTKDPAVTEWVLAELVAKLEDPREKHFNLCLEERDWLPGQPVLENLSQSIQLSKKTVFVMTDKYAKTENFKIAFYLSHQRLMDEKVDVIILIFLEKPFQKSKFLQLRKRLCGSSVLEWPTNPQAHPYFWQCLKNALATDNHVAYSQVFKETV

Toll-like receptor 7 [2] = biological target: T1, Toll-like receptor 7; assay: (§1) Agonist activity at TLR7 (unknown origin)
Toll-like receptor 7 [3] = biological target: T1, Toll-like receptor 7; assay: Agonist activity at recombinant human TLR7 transfected in HEK293 cells assessed as induction of SEAP production incubated overnight by SEAP reporter gene based assay; format: cell-based
Toll-like receptor 8 [4] = biological target: T2, Toll-like receptor 8 (Homo sapiens, UniProt Q9NR97); assay: Agonist activity at human TLR8 transfected in HEK293 cells assessed as induction of SEAP production incubated overnight; format: cell-based
T2 sequence (Q9NR97 whole entry): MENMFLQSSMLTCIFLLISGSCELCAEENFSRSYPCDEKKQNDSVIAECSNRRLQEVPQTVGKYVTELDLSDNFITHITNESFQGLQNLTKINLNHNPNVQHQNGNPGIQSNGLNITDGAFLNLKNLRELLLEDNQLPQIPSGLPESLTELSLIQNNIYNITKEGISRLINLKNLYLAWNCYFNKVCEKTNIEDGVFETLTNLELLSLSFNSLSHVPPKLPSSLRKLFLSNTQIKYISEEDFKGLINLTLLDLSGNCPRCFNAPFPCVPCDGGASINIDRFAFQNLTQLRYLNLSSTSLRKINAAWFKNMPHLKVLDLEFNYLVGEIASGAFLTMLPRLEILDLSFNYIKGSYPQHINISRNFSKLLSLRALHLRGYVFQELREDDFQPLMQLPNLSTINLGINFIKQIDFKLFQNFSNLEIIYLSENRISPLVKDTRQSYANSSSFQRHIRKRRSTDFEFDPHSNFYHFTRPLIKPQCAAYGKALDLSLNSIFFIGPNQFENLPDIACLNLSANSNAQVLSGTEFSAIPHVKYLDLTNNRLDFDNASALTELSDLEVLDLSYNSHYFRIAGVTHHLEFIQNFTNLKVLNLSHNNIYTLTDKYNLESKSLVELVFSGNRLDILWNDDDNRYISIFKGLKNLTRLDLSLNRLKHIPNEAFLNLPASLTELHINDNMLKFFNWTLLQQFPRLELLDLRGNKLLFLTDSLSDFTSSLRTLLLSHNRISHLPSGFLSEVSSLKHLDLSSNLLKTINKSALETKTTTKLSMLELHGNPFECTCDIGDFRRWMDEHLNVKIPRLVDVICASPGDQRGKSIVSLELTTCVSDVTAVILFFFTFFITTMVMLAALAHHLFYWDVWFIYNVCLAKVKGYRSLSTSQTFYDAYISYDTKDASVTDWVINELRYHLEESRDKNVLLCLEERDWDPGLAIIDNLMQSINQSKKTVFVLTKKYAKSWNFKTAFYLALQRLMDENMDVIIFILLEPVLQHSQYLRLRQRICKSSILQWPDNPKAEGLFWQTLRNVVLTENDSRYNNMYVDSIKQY

Toll-like receptor 8 [5] = biological target: T2, Toll-like receptor 8; assay: Agonist activity at human TLR8 (27 to 287 residues) in HEK-Blue hTLR8 cells assessed as induction of NFkappaB by SEAP reporter gene based spectrophotometry assay; format: cell-based
[6] = Induction of IFN production in C3H/HeJ mouse splenocytes incubated for 18 hrs; format: functional; settings: Splenocyte, read-out: MEC
Toll-like receptor 7 [7] = biological target: T1, Toll-like receptor 7; assay: Agonist activity at human TLR7 transfected in HEK293 cells assessed as induction of SEAP production incubated overnight by SEAP reporter gene based assay; format: cell-based
Toll-like receptor 8 [8] = biological target: T2, Toll-like receptor 8; assay: Agonist activity at human TLR8 in HEK-Blue hTLR8 cells assessed as activation of NFkappaB by SEAP reporter gene based spectrophotometry assay; format: cell-based; settings: hek-blue htlr8
Toll-like receptor 8 [9] = biological target: T2, Toll-like receptor 8; assay: Agonist activity at human TLR8 in HEK-Blue hTLR8 cells assessed as induction of SEAP production using nitrophenyl phosphate as substrate incubated for 20 hrs by microplate reader analysis; format: cell-based
Toll-like receptor 8 [10] = biological target: T2, Toll-like receptor 8; assay: (§2) Agonist activity at TLR8 (unknown origin)
[11] = biological target: T3, Toll-like receptor 8 (Homo sapiens) (UniProt Q9NR97); assay: as §2
T3 sequence (whole entry): T2 sequence (Q9NR97 whole entry)

[12] = biological target: T4, Toll-like receptor 7 (Homo sapiens) (UniProt Q9NYK1); assay: as §1; settings: filed as agonist
T4 sequence (whole entry): T1 sequence (Q9NYK1 whole entry)

Structure (SMILES): CCCCc1nc2c(N)nc(NCc3cccnc3)cc2n1Cc1ccccc1
- EC50 (Toll-like receptor 7 [1]): 0.25 µM

Structure (SMILES): CCCCc1nc2c(NC=O)nc3ccccc3c2s1
- EC50 (Toll-like receptor 7 [1]; hek-blue htlr7): 2.54 µM

Structure (SMILES): CCCCNc1nc(N)nnc1OCc1ccccc1F
- EC50 (Toll-like receptor 7 [2]): 0.75 µM

Structure (SMILES): CCC[C@@H](CCO)Nc1nc(N)nc(C)c1Cc1ccc(CNC)cc1OC
- EC50 (Toll-like receptor 7 [3]): 0.00302 µM
- EC50 (Toll-like receptor 8 [4]): 6.46 µM

Structure (SMILES): CC(C)Oc1cc2ccccc2nc1N
- EC50 (Toll-like receptor 8 [5]): 100 µM

Structure (SMILES): CCCC[C@H](CCO)Nc1nc(N)nnc1OC
- EC50 (Toll-like receptor 7 [2]): 7.8 µM

Structure (SMILES): CCCCc1nc(N)c2nc(O)n(Cc3ccccc3)c2n1
- minimal effective concentration [6]: 0.03 µM

Structure (SMILES): COCCc1nc2c(N)nc3ccccc3c2n1CCCCN(CCCN1CCOCC1)Cc1cccc(OCC(=O)OC(C)(C)C)c1
- EC50 (Toll-like receptor 7 [7]): 0.114 µM

Structure (SMILES): CCCc1nc2c(NS(C)(=O)=O)nc3ccccc3c2s1
- EC50 (Toll-like receptor 8 [8]): 10.6 µM

Structure (SMILES): CCC[C@@H](CO)Nc1nc(N)nc(C)c1Cc1ccc(CNC2CN(C)C2)cc1OC
- EC50 (Toll-like receptor 7 [3]): 0.155 µM
- EC50 (Toll-like receptor 8 [4]): 6.17 µM

Structure (SMILES): CCCCCc1nc2c(N)nc3ccccc3c2s1
- EC50 (Toll-like receptor 7 [1]; hek-blue htlr7): 4.14 µM
- EC50 (Toll-like receptor 8 [8]): 1.94 µM

Structure (SMILES): CCC[C@@H](CCO)Nc1nc(N)nc(C)c1Cc1ccc(CNCCC(N)=O)cc1OC
- EC50 (Toll-like receptor 7 [3]): 0.0813 µM
- EC50 (Toll-like receptor 8 [4]): > 10 µM

Structure (SMILES): CCCCNc1nc(N)nnc1OC
- EC50 (Toll-like receptor 7 [2]): 17.5 µM

Structure (SMILES): Nc1nc2ccccc2c2sc(CCC(F)(F)F)nc12
- EC50 (Toll-like receptor 7 [1]; hek-blue htlr7): 3.63 µM
- EC50 (Toll-like receptor 8 [8]): 1.61 µM

Structure (SMILES): CCCCc1nc2c(N)nc(NCC3CCCCC3)cc2n1Cc1ccccc1
- EC50 (Toll-like receptor 7 [1]): 0.32 µM

Structure (SMILES): CCCCNc1nc(N)c2nc(O)n(Cc3ccccc3)c2n1
- minimal effective concentration [6]: 0.1 µM

Structure (SMILES): CCC[C@@H](CCO)Nc1nc(N)nc(C)c1Cc1ccc(CN(C)CCO)cc1OC
- EC50 (Toll-like receptor 7 [3]): < 0.00501 µM
- EC50 (Toll-like receptor 8 [9]): 2.51 µM

Structure (SMILES): CCOC(=O)COc1cccc(CN(CCCn2c(CCOC)nc3c(N)nc4ccccc4c32)C(=O)CN(CC)CC)c1
- EC50 (Toll-like receptor 7 [7]): 0.0546 µM

Structure (SMILES): CCC[C@@H](CCO)Nc1nc(N)nc(C)c1Cc1ccc(CNCC(N)=O)cc1OC
- EC50 (Toll-like receptor 7 [3]): 0.0447 µM
- EC50 (Toll-like receptor 8 [4]): > 10 µM

Structure (SMILES): CCCCNc1nc(N)nnc1OCCCc1ccccc1
- EC50 (Toll-like receptor 7 [2]): 2.94 µM

Structure (SMILES): CCc1nc2c(N)nc3ccccc3c2s1
- EC50 (Toll-like receptor 7 [1]; hek-blue htlr7): 5.12 µM
- EC50 (Toll-like receptor 8 [8]): 0.81 µM

Structure (SMILES): COc1cc2ccccc2nc1N
- EC50 (Toll-like receptor 8 [5]): 100 µM

Structure (SMILES): CCCc1nc2c(N)nc3ccc(N=[N+]=[N-])cc3c2s1
- EC50 (Toll-like receptor 7 [1]; hek-blue htlr7): 10.2 µM
- EC50 (Toll-like receptor 8 [8]): 2.06 µM

Structure (SMILES): CCCCNc1nc(N)nnc1OCc1ccccc1
- EC50 (Toll-like receptor 8 [10]): 1.93 µM
- EC50 (Toll-like receptor 7 [2]): 2.94 µM

Structure (SMILES): CCCCNc1nc(N)nnc1OC(C)C
- EC50 (Toll-like receptor 7 [2]): 8.27 µM

Structure (SMILES): CCCCc1nc2c(NC(=O)CCC)nc3ccccc3c2s1
- EC50 (Toll-like receptor 7 [1]; hek-blue htlr7): 0.49 µM
- EC50 (Toll-like receptor 8 [8]): 0.42 µM

Structure (SMILES): CCCCOc1nc(N)c2[nH]cc(Cc3ccc(CN4CCCC4)cc3)c2n1
- EC50 (Toll-like receptor 7 [2]): 0.1 µM

Structure (SMILES): COc1cc2cc(c1)O/C=C\CCOc1nc(N)c3nc(O)n(c3n1)C2
- MEC [11]: > 25 µM
- MEC [12]: 0.18 µM

Structure (SMILES): CCCCNc1nc(N)nnc1OCc1cccnc1
- EC50 (Toll-like receptor 7 [2]): 1.71 µM

Structure (SMILES): CCC[C@H](CCO)Nc1nc(N)nnc1OCc1nccc(OC)c1OC
- EC50 (Toll-like receptor 8 [10]): 0.56 µM
- EC50 (Toll-like receptor 7 [2]): 0.24 µM

Structure (SMILES): CCOc1cc2ccccc2nc1N
- EC50 (Toll-like receptor 8 [5]): 100 µM
